IC50 data for 27 molecules are collected here from patent publication US20210317092A1 (BAYER PHARMA AKTIENGESELLSCHAFT, priority 2016, published 2021).

The target in the first experiment is T1, human Bradykinin B1 receptor (Homo sapiens, UniProt P46663).
T1 construct: host or cells: CHO-K1
T1 sequence (P46663 1-353): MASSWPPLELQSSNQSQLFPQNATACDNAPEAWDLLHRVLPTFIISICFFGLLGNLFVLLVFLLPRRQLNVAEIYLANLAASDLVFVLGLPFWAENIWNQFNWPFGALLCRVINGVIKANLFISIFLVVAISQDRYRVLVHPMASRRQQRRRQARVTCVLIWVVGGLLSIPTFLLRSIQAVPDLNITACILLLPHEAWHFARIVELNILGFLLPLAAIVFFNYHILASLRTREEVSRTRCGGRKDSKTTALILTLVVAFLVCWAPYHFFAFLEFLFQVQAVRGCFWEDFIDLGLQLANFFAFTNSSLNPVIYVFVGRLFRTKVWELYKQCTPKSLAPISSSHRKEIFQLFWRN
Briefly: Calcium flux Assay (FLIPR) with recombinant CHO-K1 cells expressing human Bradykinin B1 receptor, in presence (hB1 IC50) or absence (hB1 free IC50) of 0.1% BSA. It is filed as cell-based. Conditions: in absence of 0.1% BSA, read-out: hB1 free IC50. How it is done: The potency to inhibit the Bradykinin B1 receptor was determined for the compounds of this invention in a cell-based fluorescent calcium-mobilisation assay. The assay measures the ability of test compounds to inhibit Bradykinin B1 receptor agonist-induced increase of intracellular free Ca^2+ in the cell line expressing Bradykinin B1 receptor. […] The change of the intracellular Ca^2+ concentration is monitored with a fluorescent plate reader FLIPR TETRA® (Molecular Devices).
Calcium flux Assays (FLIPR) with cells expressing human Bradykinin B1 receptor (hB1)
CHO-K1 cell line expressing human Bradykinin B1 receptor was purchased from Euroscreen (Gosselies, Belgium, with reference name hB1-D1). The cells were grown in Nutrient Mixture Ham's F12 (Sigma) containing 10% Foetal bovine serum (Sigma) and 400 μg/mL G418 (Sigma), 5 μg/mL puromycim (Sigma). […]
Cells were seeded in a volume of 50 μL in medium without antibiotics and incubated overnight in a humidified atmosphere with 5% CO2 at 37° C. […] The calcium indicator loaded cells were incubated at 37° C. for 2 hrs. Extracellular dye was then removed and each well was filled with 45 μL of assay buffer. Cell plates were kept in dark until used. Compound examples were assayed at 8 concentrations in triplicate. Serial 10-fold dilutions in 100% DMSO were made at a 100-times higher concentration than the final concentration, and then diluted 1:10 in assay buffer. 5 μL of each diluted compound was added to the well of cell plates (yielding final concentration with 1% DMSO), and incubated for 30 min at 28° C. before the addition of Bradykinin B1 receptor agonist on the FLIPR instrument.
A peptide antagonist Lys-(Des-Arg-Leu)-Bradykinin (Bachem, Brackley) at 20 µM was used to determine the full inhibition as control.
Peak fluorescence was used to determine the response to agonist obtained at each concentration of compound examples by the following equation:
% Response=100*(RFU(compound)−RFU(control))/(RFU(DMSO)−RFU(control)) • RFU means relative fluorescence units. • Control means full inhibition by the peptide antagonist Lys-(Des-Arg-Leu)-Bradykinin at 20 µM.
The response values were plotted against the logarithm of the compound concentrations. The compound examples were tested in triplicates per plate and mean values were plotted in Excel XLfit to determine IC50 values, percentage of maximal inhibition and the Hill slopes.
On the technique in general: Calcium flux is commonly read through the fluorescence of an indicator in the cells.
For orientation: IC50 means the concentration that inhibits the measured activity by half. As to `COc1cc(C2(C(=O)Nc3ccc(-c4ccc(OC)c(OC)c4)c(-c4nnn[nH]4)c3)CC2)ccc1F` [Example 33, N-[3′,4′-dimethoxy-2-(1H-tetrazol-5-yl)biphenyl-4-yl]-1-(4-fluoro-3-methoxyphenyl) cyclopropane-carboxamide], the IC50 is 0.284 µM. `COc1ccc(-c2ccc(NC(=O)C3(c4cccc(C(F)(F)F)c4)CC3)cc2-c2nnn[nH]2)cc1OC` [Example 38, N-[3′,4′-dimethoxy-2-(1H-tetrazol-5-yl)biphenyl-4-yl]-1-[3-(trifluoromethyl)phenyl] cyclopropane-carboxamide]: the IC50 is 0.0137 µM.

Staying with this experiment, now noted: in presence of 0.1% BSA, read-out: hB1 IC50.
Take `COc1ccc(-c2ccc(NC(=O)C3(c4cccc(F)c4F)CC3)cc2-c2nnn[nH]2)cc1OC` [Example 26, 1-(2,3-difluorophenyl)-N-[3′,4′-dimethoxy-2-(1H-tetrazol-5-yl)biphenyl-4-yl]cyclopropane carboxamide]: the IC50 was 0.0917 µM.

As to `COc1ccc(-c2ccc(NC(=O)C3(c4cc(C(F)(F)F)ccc4F)CC3)cc2-c2nnn[nH]2)cc1OC` [Example 27, N-[3′,4′-dimethoxy-2-(1H-tetrazol-5-yl)biphenyl-4-yl]-1-[2-fluoro-5-(trifluoromethyl)phenyl] cyclopropane-carboxamide], the IC50 is 0.0515 µM. The same measure, in the same setting: to `COc1ccc(-c2ccc(NC(=O)C3(c4ccc(F)cc4Cl)CC3)cc2-c2nnn[nH]2)cc1OC` [Example 28, 1-(2-chloro-4-fluorophenyl)-N-[3′,4′-dimethoxy-2-(1H-tetrazol-5-yl)biphenyl-4-yl]cyclopropane carboxamide] belongs 0.138 µM; to `COc1ccc(-c2ccc(NC(=O)C3(c4c(F)cccc4F)CC3)cc2-c2nnn[nH]2)cc1OC` [Example 29, 1-(2,6-difluorophenyl)-N-[3′,4′-dimethoxy-2-(1H-tetrazol-5-yl)biphenyl-4-yl]cyclopropane carboxamide], 0.167 µM. Same read-out and setting: next, `COc1ccc(-c2ccc(NC(=O)C3(c4cc(F)ccc4Cl)CC3)cc2-c2nnn[nH]2)cc1OC` [Example 30, 1-(2-chloro-5-fluorophenyl)-N-[3′,4′-dimethoxy-2-(1H-tetrazol-5-yl)biphenyl-4-yl]cyclopropane carboxamide]: 0.201 µM; `COc1ccc(F)c(C2(C(=O)Nc3ccc(-c4ccc(OC)c(OC)c4)c(-c4nnn[nH]4)c3)CC2)c1` [Example 31, N-[3′,4′-dimethoxy-2-(1H-tetrazol-5-yl)biphenyl-4-yl]-1-(2-fluoro-5-methoxyphenyl) cyclopropane-carboxamide]: 0.212 µM.

Turning to `COc1cc(F)cc(C2(C(=O)Nc3ccc(-c4ccc(OC)c(OC)c4)c(-c4nnn[nH]4)c3)CC2)c1` [Example 32], the half-maximal inhibitory concentration (IC50) was found to be 0.0416 µM. Still for that read-out and setting: next, `COc1cc(C2(C(=O)Nc3ccc(-c4ccc(OC)c(OC)c4)c(-c4nnn[nH]4)c3)CC2)ccc1F` [Example 33, N-[3′,4′-dimethoxy-2-(1H-tetrazol-5-yl)biphenyl-4-yl]-1-(4-fluoro-3-methoxyphenyl) cyclopropane-carboxamide]: 0.238 µM; `COc1ccc(-c2ccc(NC(=O)C3(C(F)(F)F)CC3)cc2-c2nnn[nH]2)cc1OC` [Example 34, N-[3′,4′-dimethoxy-2-(1H-tetrazol-5-yl)biphenyl-4-yl]-1-(trifluoromethyl) cyclopropane-carboxamide]: 0.603 µM; `COc1ccc(-c2ccc(NC(=O)C3(c4ccccc4)CC3)cc2-c2nnn[nH]2)cc1OC` [Example 35, N-[3′,4′-dimethoxy-2-(1H-tetrazol-5-yl)biphenyl-4-yl]-1-phenylcyclo-propane-carboxamide]: 0.213 µM. As for `COc1ccc(-c2ccc(NC(=O)C3(c4ccccc4C)CC3)cc2-c2nnn[nH]2)cc1OC` [Example 37, N-[3′,4′-dimethoxy-2-(1H-tetrazol-5-yl)biphenyl-4-yl]-1-(2-methylphenyl) cyclopropane-carboxamide], the IC50 was 1.83 µM. On the same count and under the same terms, to `COc1ccc(-c2ccc(NC(=O)C3(c4cccc(C(F)(F)F)c4)CC3)cc2-c2nnn[nH]2)cc1OC` [Example 38, N-[3′,4′-dimethoxy-2-(1H-tetrazol-5-yl)biphenyl-4-yl]-1-[3-(trifluoromethyl)phenyl] cyclopropane-carboxamide] belongs 0.0388 µM. Same read-out and setting: to `COc1ccc(-c2ccc(NC(=O)C3(c4cccc(C)c4)CC3)cc2-c2nnn[nH]2)cc1OC` [Example 39, N-[3′,4′-dimethoxy-2-(1H-tetrazol-5-yl)biphenyl-4-yl]-1-(3-methylphenyl) cyclopropane-carboxamide] belongs 0.0803 µM; to `CCc1cccc(C2(C(=O)Nc3ccc(-c4ccc(OC)c(OC)c4)c(-c4nnn[nH]4)c3)CC2)c1` [Example 40, N-[3′,4′-dimethoxy-2-(1H-tetrazol-5-yl)biphenyl-4-yl]-1-(3-ethylphenyl) cyclopropane-carboxamide], 0.0314 µM; to `CCCc1cccc(C2(C(=O)Nc3ccc(-c4ccc(OC)c(OC)c4)c(-c4nnn[nH]4)c3)CC2)c1` [Example 41, N-[3′,4′-dimethoxy-2-(1H-tetrazol-5-yl)biphenyl-4-yl]-1-(3-propylpheny) cyclopropane-carboxamide], 0.092 µM. Still for that read-out and setting: to `COc1ccc(-c2ccc(NC(=O)C3(c4cccc(C(C)(C)C)c4)CC3)cc2-c2nnn[nH]2)cc1OC` [Example 42, 1-(3-tert-butylphenyl)-N-[3′,4′-dimethoxy-2-(1H-tetrazol-5-yl)biphenyl-4-yl]cyclopropane carboxamide] belongs 0.746 µM.

Take `COc1ccc(-c2ccc(NC(=O)C3(c4ccc(Cl)cc4)CC3)cc2-c2nnn[nH]2)cc1OC` [Example 43, 1-(4-chlorophenyl)-N-[3′,4′-dimethoxy-2-(1H-tetrazol-5-yl)biphenyl-4-yl]cyclopropane carboxamide]: the IC50 was found to be 0.014 µM. The same measure, in the same setting: next, `COc1ccc(-c2ccc(NC(=O)C3(c4ccc(C)cc4)CC3)cc2-c2nnn[nH]2)cc1OC` [Example 45, N-[3′,4′-dimethoxy-2-(1H-tetrazol-5-yl)biphenyl-4-yl]-1-(4-methylphenyl) cyclopropane-carboxamide]: 0.0498 µM. For the molecule `COc1ccc(-c2ccc(NC(=O)C3(c4ccc(C(C)(C)C)cc4)CC3)cc2-c2nnn[nH]2)cc1OC` [Example 46, 1-(4-tert-butylphenyl)-N-[3′,4′-dimethoxy-2-(1H-tetrazol-5-yl)biphenyl-4-yl]cyclopropane carboxamide], the IC50 came out at 0.141 µM.

In the case of `COc1ccc(C2(C(=O)Nc3ccc(-c4ccc(OC)c(OC)c4)c(-c4nnn[nH]4)c3)CC2)cc1` [Example 47, N-[3′,4′-dimethoxy-2-(1H-tetrazol-5-yl)biphenyl-4-yl]-1-(4-methoxyphenyl) cyclopropane-carboxamide], the concentration for half-maximal inhibition (IC50) was determined as 0.18 µM. Still for that read-out and setting: to `COc1ccc(-c2ccc(NC(=O)C3(c4cccc(F)c4Cl)CC3)cc2-c2nnn[nH]2)cc1OC` [Example 49, 1-(2-chloro-3-fluorophenyl)-N-[3′,4′-dimethoxy-2-(1H-tetrazol-5-yl)biphenyl-4-yl]cyclopropane carboxamide] belongs 0.213 µM; to `COc1ccc(-c2ccc(NC(=O)C3(c4cccc(Cl)n4)CC3)cc2-c2nnn[nH]2)cc1OC` [Example 50, 1-(6-chloropyridin-2-yl)-N-[3′,4′-dimethoxy-2-(1H-tetrazol-5-yl)biphenyl-4-yl]cyclopropane carboxamide], 0.31 µM. On the same count and under the same terms, next, `COc1ccc(-c2ccc(NC(=O)C3(c4ccc(Cl)nc4)CC3)cc2-c2nnn[nH]2)cc1OC` [Example 51, 1-(6-Chloropyridin-3-yl)-N-[3′,4′-dimethoxy-2-(1H-tetrazol-5-yl)biphenyl-4-yl]cyclopropane carboxamide]: 0.342 µM; `COc1ccc(-c2ccc(NC(=O)C3(Cc4ccccc4)CC3)cc2-c2nnn[nH]2)cc1OC` [Example 53, 1-benzyl-N-[3′,4′-dimethoxy-2-(1H-tetrazol-5-yl)biphenyl-4-yl]cyclopropane carboxamide]: 0.514 µM; `COc1ccc(-c2ccc(NC(=O)C3(CC4CCCCC4)CC3)cc2-c2nnn[nH]2)cc1OC` [Example 54, 1-(cyclohexyl-methyl)-N-[3′,4′-dimethoxy-2-(1H-tetrazol-5-yl)biphenyl-4-yl]cyclopropane carboxamide]: 0.544 µM.

As to `COc1ccc(-c2ccc(NC(=O)C3(CC(C)C)CC3)cc2-c2nnn[nH]2)cc1OC` [Example 55, N-[3′,4′-dimethoxy-2-(1H-tetrazol-5-yl)biphenyl-4-yl]-1-isobutyl-cyclopropane-carboxamide], the IC50 was found to be 2.06 µM. As for `CCc1ccc(C2(C(=O)Nc3ccc(-c4ccc(OC)c(OC)c4)c(-c4nnn[nH]4)c3)CC2)cc1` [Example 57, N-[3′,4′-dimethoxy-2-(1H-tetrazol-5-yl)biphenyl-4-yl]-1-(4-ethylphenyl) cyclopropane-carboxamide], the IC50 is 0.0366 µM.
